Drawing on patent US9464076B2, “Benzothiophene derivative” (Daiichi Sankyo Company, Limited, priority 2013, dated 2016), this text covers IC50 for 29 compounds.

This experiment deals with PDE10A (Homo sapiens (Human), UniProt Q9Y233). Briefly: Measurement of PDE10A inhibitory activity-2 (PDE10A fraction prepared from MOLT-4 cells). The class given is biochemical. As to conditions: PDE10A fraction from MOLT-4 cells (peak around 250 mM NaCl). The method, then: A human acute lymphoblastic lymphoma T cell line MOLT-4 (which can be purchased under ATCC No. CRL-1582 from ATCC) was cultured in an RPMI1640 medium containing 10% fetal bovine serum to obtain 5×10^8 MOLT-4 cells. The cells were recovered by centrifugation and suspended in 10 ml of buffer solution A (25 mM Tris-HCl, 5 mM 2-mercaptoethanol, 2 mM benzamidine, 2 mM EDTA, and 0.1 mM 4-(2-aminoethyl)benzenesulfonyl hydrochloride, pH 7.5). The cells were homogenized using a Polytron homogenizer and centrifuged (4° C., 25,000 g, 10 minutes). Then, the supernatant was further ultracentrifuged (4° C., 100,000 g, 60 minutes). The obtained supernatant was filtered through a 0.2 μm filter to obtain a soluble fraction.
Sequence of PDE10A (Q9Y233 whole entry): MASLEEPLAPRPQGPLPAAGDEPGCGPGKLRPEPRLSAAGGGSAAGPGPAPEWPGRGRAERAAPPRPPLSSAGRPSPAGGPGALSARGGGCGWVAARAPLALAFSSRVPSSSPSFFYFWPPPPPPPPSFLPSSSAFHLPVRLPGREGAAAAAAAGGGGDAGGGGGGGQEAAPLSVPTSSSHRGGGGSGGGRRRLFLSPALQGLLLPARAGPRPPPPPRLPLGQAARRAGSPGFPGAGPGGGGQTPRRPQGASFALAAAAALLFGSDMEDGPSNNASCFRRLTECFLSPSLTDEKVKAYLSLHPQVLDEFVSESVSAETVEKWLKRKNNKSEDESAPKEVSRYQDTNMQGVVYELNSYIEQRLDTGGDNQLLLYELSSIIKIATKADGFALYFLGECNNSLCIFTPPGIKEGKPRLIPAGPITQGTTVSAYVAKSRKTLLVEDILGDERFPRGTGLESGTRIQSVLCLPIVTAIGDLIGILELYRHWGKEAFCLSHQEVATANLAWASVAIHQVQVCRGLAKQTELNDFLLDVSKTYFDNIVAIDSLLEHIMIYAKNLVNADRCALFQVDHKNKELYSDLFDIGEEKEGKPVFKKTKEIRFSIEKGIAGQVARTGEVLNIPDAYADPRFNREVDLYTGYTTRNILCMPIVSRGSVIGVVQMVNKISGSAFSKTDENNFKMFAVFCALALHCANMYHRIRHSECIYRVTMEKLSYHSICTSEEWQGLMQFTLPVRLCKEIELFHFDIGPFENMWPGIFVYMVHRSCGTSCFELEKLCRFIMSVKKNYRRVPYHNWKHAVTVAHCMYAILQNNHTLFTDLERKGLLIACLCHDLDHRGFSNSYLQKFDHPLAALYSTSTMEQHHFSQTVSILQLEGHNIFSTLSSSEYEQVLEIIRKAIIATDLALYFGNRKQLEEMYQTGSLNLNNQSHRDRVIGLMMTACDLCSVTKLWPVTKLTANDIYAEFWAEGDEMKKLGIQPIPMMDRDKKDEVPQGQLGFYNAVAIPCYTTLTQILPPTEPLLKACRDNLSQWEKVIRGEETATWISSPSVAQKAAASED
HiTrap Q HP column (5 ml×2, GE Healthcare Japan Corp.) equilibrated with buffer solution A was charged with the obtained soluble fraction. Phosphodiesterase was eluted with 300 ml of buffer solution A containing a linear gradient solution of 0 to 0.8 M NaCl to recover sixty 5-ml fractions. Each fraction was tested for cAMP-metabolizing phosphodiesterase activity.
On the other hand, total RNA was prepared from Jurkat cells, one type of human T cell, and similarly subjected to RT-PCR. […] Eur J Biochem. 1999, 266 (3), 1118-2 has reported that PDE10A from the rat striatum and testis is eluted as an active peak centered around 250 mM NaCl.
For these reasons, this fraction was used as a solution for the evaluation of PDE10A inhibitory activity. The obtained solution was used to calculate the inhibitory activity (IC50) of a test compound in the same way as in the aforementioned test.

Counter-ions that a name gives are not always drawn.

A word on the IC50: it is the point on the concentration scale where inhibition reaches its midpoint. In turn, `COC(C)c1ccc(C(C)=O)c2sc(C(=O)Nc3cc(C(C)(C)O)c4ccccc4n3)c(C)c12` (centres unmarked) [Example 32, 7-Acetyl-N-(4-(2-hydroxypropan-2-yl)quinolin-2-yl)-4-(1-methoxyethyl)-3-methylbenzo[b]thiophene-2-carboxamide] registered a concentration for half-maximal inhibition (IC50) of 9100 pM.

`COC1CN(C(=O)c2cccc3nc(NC(=O)c4sc5c(C(C)=O)ccc(CO)c5c4C)ccc23)C1` [Example 115, 7-Acetyl-4-(hydroxymethyl)-N-(5-((3-methoxyazetidin-1-yl)carbonyl)quinolin-2-yl)-3-methylbenzo[b]thiophene-2-carboxamide]: inhibition was half-maximal at 890 pM (IC50).

The compound `COCc1ccc(C(C)=O)c2sc(C(=O)Nc3cc(CN4CCC(O)C4)c4ccccc4n3)c(C)c12` (centres unmarked) [Example 35, 7-Acetyl-N-(4-((3-hydroxypyrrolidin-1-yl)methyl)quinolin-2-yl)-4-(methoxymethyl)-3-methylbenzo[b]thiophene-2-carboxamide] yielded a half-maximal inhibitory concentration (IC50) of 290 pM.

As to `COCc1ccc(C(C)=O)c2sc(C(=O)Nc3ccc4c(C(=O)OC)cccc4n3)c(C)c12` [Example 92, Methyl 2-(7-acetyl-4-(methoxymethyl)-3-methylbenzo[b]thiophene-2-carboxamido)quinoline-5-carboxylate], the IC50 stood at 12000 pM.

`CC(=O)c1ccc(C(C)=O)c2c(C)c(C(=O)Nc3cc(C)c4ccccc4n3)sc12` [Example 11, 4,7-Diacetyl-3-methyl-N-(4-methylquinolin-2-yl)benzo[b]thiophene-2-carboxamide]: the IC50 stood at 2200 pM.

Take `COc1cc(NC(=O)c2sc3c(C(C)=O)ccc(C(C)=O)c3c2C)nc2ccccc12` [Example 12, 4,7-Diacetyl-N-(4-methoxyquinolin-2-yl)-3-methylbenzo[b]thiophene-2-carboxamide]: the 50% inhibitory concentration (IC50) was 4400 pM.

`COCc1ccc(C(C)=O)c2sc(C(=O)Nc3cc(CN4CCC(F)CC4)c4ccccc4n3)c(C)c12` [Example 46, 7-Acetyl-N-(4-((4-fluoropiperidin-1-yl)methyl)quinolin-2-yl)-4-(methoxymethyl)-3-methylbenzo[b]thiophene-2-carboxamide]: the half-inhibitory concentration (IC50) turned out to be 440 pM.

Consider `COCc1ccc(C(C)=O)c2sc(C(=O)Nc3cc(Cl)c4ccccc4n3)c(C)c12` [Example 53, 7-Acetyl-N-(4-chloroquinolin-2-yl)-4-(methoxymethyl)-3-methylbenzo[b]thiophene-2-carboxamide], for which the IC50 was determined as 18000 pM.

`COCc1ccc(C(C)=O)c2sc(C(=O)Nc3cc(C(=O)N4CC[C@@H](O)C4)c4ccccc4n3)c(C)c12` [Example 50, (R)-7-Acetyl-N-(4-((3-hydroxypyrrolidin-1-yl)carbonyl)quinolin-2-yl)-4-(methoxymethyl)-3-methylbenzo[b]thiophene-2-carboxamide] gave an IC50 of 2600 pM.

In turn, `CCCOCc1ccc(C(C)=O)c2sc(C(=O)Nc3cc(C(C)(C)O)c4ccccc4n3)c(C)c12` [Example 30, 7-Acetyl-N-(4-(2-hydroxypropan-2-yl)quinolin-2-yl)-3-methyl-4-(propoxymethyl)benzo[b]thiophene-2-carboxamide] returned an IC50 of 11000 pM.

Turning to `Cc1c(C(=O)Nc2cc(C(C)(C)O)c3ccccc3n2)sc2c(C(=O)C3CCC3)cccc12` [Example 21, 7-(Cyclobutylcarbonyl)-N-(4-(2-hydroxypropan-2-yl)quinolin-2-yl)-3-methylbenzo[b]thiophene-2-carboxamide], the IC50 came out at 670 pM.

`Cc1c(C(=O)Nc2cc(C(C)(C)O)c3ccccc3n2)sc2c(C(=O)C(C)C)cccc12` [Example 18, N-(4-(2-Hydroxypropan-2-yl)quinolin-2-yl)-7-isobutyryl-3-methylbenzo[b]thiophene-2-carboxamide] yielded a concentration for half-maximal inhibition (IC50) of 470 pM.

As to `COCc1ccc(C(C)=O)c2sc(C(=O)Nc3ccc4c(C(=O)N5CC(F)C5)cccc4n3)c(C)c12` [Example 99, 7-Acetyl-N-(5-((3-fluoroazetidin-1-yl)carbonyl)quinolin-2-yl)-4-(methoxymethyl)-3-methylbenzo[b]thiophene-2-carboxamide], 110 pM corresponded to half-maximal inhibition (IC50).

The compound `CC(=O)c1ccc(C(C)=O)c2c(C)c(C(=O)Nc3cc(CN4CCC(O)C4)c4ccccc4n3)sc12` (centres unmarked) [Example 51, 4,7-Diacetyl-N-(4-((3-hydroxypyrrolidin-1-yl)methyl)quinolin-2-yl)-3-methylbenzo[b]thiophene-2-carboxamide] displayed an IC50 of 1500 pM.

`COCc1ccc(C(C)=O)c2sc(C(=O)Nc3ccc4c(C(C)(C)O)cccc4n3)c(C)c12` [Example 74, 7-Acetyl-N-(5-(2-hydroxypropan-2-yl)quinolin-2-yl)-4-(methoxymethyl)-3-methylbenzo[b]thiophene-2-carboxamide]: half-maximal inhibition (IC50) required 3000 pM.

Take `COCc1ccc(C(C)=O)c2sc(C(=O)Nc3ccc4c(C(C)=O)cccc4n3)c(C)c12` [Example 75, 7-Acetyl-N-(5-acetylquinolin-2-yl)-4-(methoxymethyl)-3-methylbenzo[b]thiophene-2-carboxamide]: the IC50 was 910 pM.

For `COCc1ccc(C(C)=O)c2sc(C(=O)Nc3ccc4c(C(=O)N5CCOCC5)cccc4n3)c(C)c12` [Example 95, 7-Acetyl-4-(methoxymethyl)-3-methyl-N-(5-((morpholin-4-yl)carbonyl)quinolin-2-yl)benzo[b]thiophene-2-carboxamide], half-maximal inhibition (IC50) was put at 480 pM.

With `COCc1cccc2nc(NC(=O)c3sc4c(C(C)=O)ccc(CO)c4c3C)ccc12` [Example 113, 7-Acetyl-4-(hydroxymethyl)-N-(5-(methoxymethyl)quinolin-2-yl)-3-methylbenzo[b]thiophene-2-carboxamide], the 50% inhibitory concentration (IC50) turned out to be 120 pM.

Turning to `CC(=O)c1ccc(C(C)O)c2c(C)c(C(=O)Nc3cc(C(C)(C)O)c4ccccc4n3)sc12` (centres unmarked) [Example 9, 7-Acetyl-4-(1-hydroxyethyl)-N-(4-(2-hydroxypropan-2-yl)quinolin-2-yl)-3-methylbenzo[b]thiophene-2-carboxamide], the 50% inhibitory concentration (IC50) was 7800 pM.

Regarding `CC(=O)c1ccc(C(C)=O)c2c(C)c(C(=O)Nc3cc(C(C)O)c4ccccc4n3)sc12` (centres unmarked) [Example 13, 4,7-Diacetyl-N-(4-(1-hydroxyethyl)quinolin-2-yl)-3-methylbenzo[b]thiophene-2-carboxamide], the half-maximal inhibitory concentration (IC50) was found to be 2000 pM.

In turn, `COCc1ccc(C(C)=O)c2sc(C(=O)Nc3ccc4c(COC(=O)CCC(=O)O)cccc4n3)c(C)c12` [Example 89, 4-((2-(7-Acetyl-4-(methoxymethyl)-3-methylbenzo[b]thiophene-2-carboxamido)quinolin-5-yl)methoxy)-4-oxobutanoic acid] registered an IC50 of 370 pM.

Regarding `Cc1c(C(=O)Nc2cc(C(C)(C)O)c3ccccc3n2)sc2c(C(=O)C3CC3)cccc12` [Example 19, 7-(Cyclopropylcarbonyl)-N-(4-(2-hydroxypropan-2-yl)quinolin-2-yl)-3-methylbenzo[b]thiophene-2-carboxamide], the IC50 is 920 pM.

Take `COCc1ccc(C(C)=O)c2sc(C(=O)Nc3cc(CN4CCNCC4)c4ccccc4n3)c(C)c12` [Example 124, 7-Acetyl-4-(methoxymethyl)-3-methyl-N-(4-(piperazin-1-ylmethyl)quinolin-2-yl)benzo[b]thiophene-2-carboxamide]: the 50% inhibitory concentration (IC50) was 2900 pM.

The compound `COCc1ccc(C(C)=O)c2sc(C(=O)Nc3ccc4c(C(=O)N5CC(F)(F)C5)cccc4n3)c(C)c12` [Example 100, 7-Acetyl-N-(5-((3,3-difluoroazetidin-1-yl)carbonyl)quinolin-2-yl)-4-(methoxymethyl)-3-methylbenzo[b]thiophene-2-carboxamide] gave a half-inhibitory concentration (IC50) of 420 pM.

On to `CCCCC(=O)c1cccc2c(C)c(C(=O)Nc3cc(C(C)(C)O)c4ccccc4n3)sc12` [Example 20, N-(4-(2-Hydroxypropan-2-yl)quinolin-2-yl)-3-methyl-7-pentanoylbenzo[b]thiophene-2-carboxamide], for which the half-inhibitory concentration (IC50) was 10000 pM.

In turn, `COCc1ccc(C(C)=O)c2sc(C(=O)Nc3cc(CN4CCCC(O)C4)c4ccccc4n3)c(C)c12` (centres unmarked) [Example 37, 7-Acetyl-N-(4-((3-hydroxypiperidin-1-yl)methyl)quinolin-2-yl)-4-(methoxymethyl)-3-methylbenzo[b]thiophene-2-carboxamide] yielded an IC50 of 500 pM.

Consider `[2H]C([2H])([2H])OC1CN(C(=O)c2cccc3nc(NC(=O)c4sc5c(C(C)=O)ccc(COC)c5c4C)ccc23)C1` [Example 122, 7-Acetyl-N-(5-((3-(^2H3)methoxyazetidin-1-yl)carbonyl)quinolin-2-yl)-4-(methoxymethyl)-3-methylbenzo[b]thiophene-2-carboxamide], for which the IC50 stood at 290 pM.

As to `COCc1ccc(C(=O)C(C)(C)C)c2sc(C(=O)Nc3cc(CN4CC[C@@H](O)C4)c4ccccc4n3)c(C)c12` [Example 58, (R)—N-(4-((3-Hydroxypyrrolidin-1-yl)methyl)quinolin-2-yl)-4-(methoxymethyl)-3-methyl-7-pivaloylbenzo[b]thiophene-2-carboxamide dihydrochloride], the midpoint of inhibition, the IC50, lay at 85 pM.

Consider `COCc1ccc(C(C)=O)c2sc(C(=O)Nc3cc(N4CCOCC4)c4ccccc4n3)c(C)c12` [Example 56, 7-Acetyl-4-(methoxymethyl)-3-methyl-N-(4-morpholinoquinolin-2-yl)benzo[b]thiophene-2-carboxamide], for which the IC50 amounted to 1100 pM.
